These are literature values, as cited in patent US20140073699A1, “Combination Therapies for the Treatment of Obesity” (Metabolous Pharmaceuticals, Inc., priority 2009, published 2014).

For the data set the following is noted: literature studies.
Take `CCN[C@@H](C)Cc1cccc(C(F)(F)F)c1` [dexfenfluramine]: the “weight loss of body weight for drug compared with placebo” value (from here on “weight loss … compared with placebo”) is reported as “about 5%”.

Consider `CCCCCCCCCCC[C@@H](C[C@@H]1OC(=O)[C@H]1CCCCCC)OC(=O)[C@H](CC(C)C)NC=O` [orlistat], for which the “weight loss … compared with placebo” value is recorded as “about 5%”.

As to `CC(C)CC(N(C)C)C1(c2ccc(Cl)cc2)CCC1` (stereo not drawn) [sibutramine], the “weight loss … compared with placebo” value is recorded as “about 5%”.
